Data taken from patent US8933195B2, “Histone deacetylase inhibitors and synthetic method thereof and use thereof in manufacture of medicaments” (Nanjing Yoko Biomedical R & D Ltd., priority 2011, dated 2015).

What was measured:
[1] = system: HT1080 (human fibrosarcoma cells); assay: MTT cancer cell growth inhibition; type: cell-based; settings: HT-1080, 72 h
Text: (§1) 1. Experimental principles: the inhibition of cancer cell growth with compounds is detected by an MTT method. The principle of the MTT method is as follows: yellow thiazolyl blue may penetrate through cell membranes and enter into cells, succinate dehydrogenase in living cell mitochondria may reduce exogenous MTT into water-insoluble ianthinus acicular Formazan crystals which deposit in the cells, the crystals can be dissolved with dimethyl sulfoxide (DMSO), the optical density of the crystals is detected with an enzyme-linked immunometric meter at the wavelength of 490 nm/570 nm, and the number of cells can be indirectly reflected.
(§2) 2. Experimental materials: the used cancer cell lines are Hela (human cervical cancer cells), MCF-7 (human breast cancer cells), BGC-823 (human gastric cancer cells), A549 (human lung cancer cells), HT1080 (human fibrosarcoma cells), A431 (human epidermal squamous cell carcinoma cells), HUVEC (human umbilical vein endothelial cells), DU145 (human prostate cancer cells), K562 (human leukemia cells), U937 (human leukemia cells), Pac-1 (human pancreatic cancer cells), and MOLT-4 (human acute lymphoblastic leukemia cells), which are cultured with a DMEM+10% FBS culture medium or a 1640+10% FBS culture medium, respectively.
(§3) Experimental groups: 190 μl cell suspension+10 μl pharmaceuticals in different concentrations (the final concentration is 10^−5-10^−10M)
(§4) Negative control group: 190 μl cell suspension+10 μl 2% DMSO (the final concentration of DMSO is 0.1%)
(§5) a) Cells are inoculated on a 96-pore plate, with 1500 cells and 190 μl for each hole, and cultured overnight in a 5% CO2 incubator at 37.
(§6) b) 10 μl of different pharmaceuticals is added into each hole the next day, with the final concentration of the pharmaceuticals of 10^−5-10^−10M and three parallel holes, and incubated for 72 h in a 5% CO2 incubator at 37.
(§7) c) 20 μl of 5 mg/mL MTT is added into each hole, and incubated for 4 h in a 5% CO2 incubator at 37.
(§8) d) Supernatant is removed. 100 μl of DMSO is added into each hole and vibrated.
(§9) e) The reading is 570 nm. The cell survival rate is calculated.

[2] = system: BGC-823 (human gastric cancer cells); assay: MTT cancer cell growth inhibition; type: cell-based; settings: 72 h, read-out: GI50 BGC823
Text: as §1, §2, §3, §4, §5, §6, §7, §8, §9

[3] = system: MOLT-4 (human acute lymphoblastic leukemia cells); assay: MTT cancer cell growth inhibition; type: cell-based; settings: 72 h
Text: as §1, §2, §3, §4, §5, §6, §7, §8, §9

[4] = system: Hela (human cervical cancer cells); assay: MTT cancer cell growth inhibition; type: cell-based; settings: 72 h
Text: as §1, §2, §3, §4, §5, §6, §7, §8, §9

[5] = system: U937 (human leukemia cells); assay: MTT cancer cell growth inhibition; type: cell-based; settings: U-937, 72 h
Text: as §1, §2, §3, §4, §5, §6, §7, §8, §9

PANC-1 = assay: MTT cancer cell growth inhibition; type: cell-based; settings: Homo sapiens, 72 h
Text: as §1, §2, §3, §4, §5, §6, §7, §8, §9

[6] = system: DU145 (human prostate cancer cells); assay: MTT cancer cell growth inhibition; type: cell-based; settings: DU-145, 72 h
Text: as §1, §2, §3, §4, §5, §6, §7, §8, §9

[7] = system: A549 (human lung cancer cells); assay: MTT cancer cell growth inhibition; type: cell-based; settings: 72 h
Text: as §1, §2, §3, §4, §5, §6, §7, §8, §9

[8] = system: MCF-7 (human breast cancer cells); assay: MTT cancer cell growth inhibition; type: cell-based; settings: MCF7, 72 h
Text: as §1, §2, §3, §4, §5, §6, §7, §8, §9

Incap = assay: MTT cancer cell growth inhibition; type: cell-based; settings: 72 h
HDAC7 = biological target: T1, HDAC7 (Homo sapiens, UniProt Q8WUI4); assay: Measurement of biochemical activities of HDAC (fluorescently-labeled acetylated lysine substrate)
T1 sequence (Q8WUI4 1-952): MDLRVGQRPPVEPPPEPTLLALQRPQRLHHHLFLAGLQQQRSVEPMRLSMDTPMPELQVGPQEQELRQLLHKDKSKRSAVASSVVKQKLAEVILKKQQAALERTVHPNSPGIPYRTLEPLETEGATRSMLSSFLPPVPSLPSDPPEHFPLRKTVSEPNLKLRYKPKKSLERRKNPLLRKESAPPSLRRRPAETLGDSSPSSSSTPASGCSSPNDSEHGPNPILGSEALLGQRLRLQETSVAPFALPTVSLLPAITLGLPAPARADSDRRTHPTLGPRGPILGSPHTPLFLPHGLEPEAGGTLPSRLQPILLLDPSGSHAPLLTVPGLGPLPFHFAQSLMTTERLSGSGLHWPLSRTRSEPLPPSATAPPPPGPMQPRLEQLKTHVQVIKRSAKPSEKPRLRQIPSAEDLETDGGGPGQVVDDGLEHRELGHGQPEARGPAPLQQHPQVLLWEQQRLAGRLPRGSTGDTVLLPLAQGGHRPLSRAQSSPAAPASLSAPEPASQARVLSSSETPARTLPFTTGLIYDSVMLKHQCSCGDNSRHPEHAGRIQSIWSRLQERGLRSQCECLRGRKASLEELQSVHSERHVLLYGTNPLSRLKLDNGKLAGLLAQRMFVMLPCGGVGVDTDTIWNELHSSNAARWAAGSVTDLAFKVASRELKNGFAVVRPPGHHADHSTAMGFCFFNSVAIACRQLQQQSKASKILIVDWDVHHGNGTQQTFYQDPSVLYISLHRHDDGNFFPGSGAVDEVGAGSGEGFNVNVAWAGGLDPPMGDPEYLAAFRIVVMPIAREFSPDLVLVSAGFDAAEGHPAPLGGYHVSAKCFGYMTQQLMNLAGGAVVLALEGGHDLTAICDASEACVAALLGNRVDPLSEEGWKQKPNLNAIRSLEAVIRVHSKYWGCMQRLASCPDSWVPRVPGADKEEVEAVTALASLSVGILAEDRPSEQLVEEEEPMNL
Protocol: (§10) 1. Measurement principles: the measurement of biochemical activities of compounds is determined according to the degree of the compounds inhibiting the deacylation of HDAC enzyme. After the fluorescently-labeled substrate containing acetylated lysine side chain reacts with the HDAC enzyme, the fluorogenic substrate is deacetylated. After the deacetylated fluorescently-labeled substrate is cracked by the enzyme, a fluorescent substance is released. The fluorescent substance generates emitting light of 460 nm under the excitation of light of 360 nm.
(§11) 2. Detailed steps: the substrate of HDAC is diluted to […] (the reaction concentration is […]) with a reaction buffer. HDAC enzyme is diluted to a proper concentration. The compounds to be detected in different concentrations are added. The mixture reacts for 30 min at 37. Then the developer with the same volume and twice concentration of the substrate is added into the mixture. The mixture is incubated for 15 min at room temperature. Finally, the reading is measured with a micro plate scanner. The excitation light is 360 nm, the emitting light is 460 nm, and the data is processed with Prime 4 software.

HDAC1 = HDAC1 (Homo sapiens, UniProt Q13547); assay: as above; settings: read-out: IC50 HDAC1
Protocol: as §10, §11

Sequence of HDAC1 (Q13547 whole entry, species assumed): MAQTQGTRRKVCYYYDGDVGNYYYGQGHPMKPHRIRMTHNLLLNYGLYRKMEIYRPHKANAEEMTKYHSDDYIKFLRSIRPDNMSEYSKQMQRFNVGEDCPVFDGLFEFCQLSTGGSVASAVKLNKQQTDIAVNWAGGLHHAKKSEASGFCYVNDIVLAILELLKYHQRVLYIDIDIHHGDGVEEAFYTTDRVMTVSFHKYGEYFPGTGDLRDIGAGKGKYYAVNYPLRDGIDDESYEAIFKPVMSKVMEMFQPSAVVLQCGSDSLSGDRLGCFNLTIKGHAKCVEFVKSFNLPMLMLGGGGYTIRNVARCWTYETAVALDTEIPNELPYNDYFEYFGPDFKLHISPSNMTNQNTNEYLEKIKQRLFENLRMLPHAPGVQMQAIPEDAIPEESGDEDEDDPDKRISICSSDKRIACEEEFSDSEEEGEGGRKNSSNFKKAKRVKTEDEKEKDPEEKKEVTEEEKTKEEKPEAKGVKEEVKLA

GI50 [1] [nM]	GI50 [2] [nM]	GI50 [3] [nM]	GI50 [4] [nM]	GI50 [5] [nM]	GI50 (PANC-1) [nM]	GI50 [6] [nM]	GI50 [7] [nM]	GI50 [8] [nM]	GI50 (Incap) [nM]	IC50 HDAC7 (HDAC7)	IC50 (HDAC1) [nM]	SMILES
100	20	30	100	4	200	4	300	50	70	no activity	< 190	C/C=C1\NC(=O)c2csc(n2)CNC(=O)C[C@@H](/C=C/CCSC(=O)CCCCCCC)OC(=O)[C@H](CC)NC1=O [Compound 1-2]
25000	5000	3640	45000	10100	890	13600	41000	56600	12000	no activity	< 10000	C/C=C1\NC(=O)c2csc(n2)CNC(=O)C[C@@H](/C=C/CCSC(=O)CCCCCCCCCCCC)OC(=O)[C@H](C(C)C)NC1=O [Compound 6-3]
60	5940	2120	450	140	4130	50	1090	1200	450	no activity	< 10000	CCCCCCCC(=O)SCC/C=C/[C@@H]1CC(=O)NCc2nc(cs2)C(=O)NCC(=O)N[C@@H](C(C)C)C(=O)O1 [Compound 3-3]
12000	56200	64500	500	12600	45000	560	4200	650	11600	no activity	< 10000	C/C=C1\NC(=O)c2cccc(c2)CNC(=O)C[C@@H](/C=C/CCSC(=O)CCCCCCC)OC(=O)[C@H](C(C)C)NC1=O [Compound 2-6]
30	2120	2000	1230	5010	1030	4020	25100	150	1230	no activity	< 100	C/C=C1\NC(=O)c2csc(n2)[C@H](C)NC(=O)C[C@@H](/C=C/CCSC(=O)CCCCCCC)OC(=O)[C@H](C(C)C)NC1=O [Compound 4-2]
50	100	9	400	7	300	8	90	90	50	no activity	< 100	C/C=C1\NC(=O)c2csc(n2)CNC(=O)C[C@@H](/C=C/CCSC(=O)CCCCCCC)OC(=O)CNC1=O [Compound 1-1]
1000	100	1000	2000	100	3000	100	600	800	600	no activity	< 10000	C/C=C1\NC(=O)c2csc(n2)CNC(=O)C[C@@H](/C=C/CCSC(=O)CCCCCCC)OC(=O)[C@@H](C)NC1=O [Compound 1-5]
40	50	10	50	5	600	3	30	50	30	no activity	< 10000	C/C=C1\NC(=O)c2csc(n2)CNC(=O)C[C@@H](/C=C/CCSC(=O)CCCCCCC)OC(=O)[C@H](Cc2cccc3ccccc23)NC1=O [Compound 1-9]
1000	60	100	900	100	6000	100	1200	800	300	no activity	< 100	C/C=C1\NC(=O)c2csc(n2)CNC(=O)C[C@@H](/C=C/CCSC(=O)CCCCCCC)OC(=O)[C@H](CSCC)NC1=O [Compound 1-12]
3030	7120	30	1060	650	10	140	4660	2550	1020	no activity	< 10000	C/C=C1\NC(=O)c2csc(n2)[C@H](Cc2ccccc2)NC(=O)C[C@@H](/C=C/CCSC(=O)CCCCCCC)OC(=O)[C@H](C(C)C)NC1=O [Compound 4-3]
80	160	10	100	9	800	6	5090	90	30	no activity	< 100	C/C=C1\NC(=O)c2csc(n2)CNC(=O)C[C@@H](/C=C/CCSC(=O)CCCCCCC)OC(=O)[C@H](CC(C)C)NC1=O [Compound 1-11]

SMILES	GI50 [1] [nM]	GI50 [2] [nM]	GI50 [3] [nM]	GI50 [4] [nM]	GI50 [5] [nM]	GI50 (PANC-1) [nM]	GI50 [6] [nM]	GI50 [7] [nM]	GI50 [8] [nM]	GI50 (Incap) [nM]	IC50 HDAC7 (HDAC7)	IC50 (HDAC1) [nM]
C/C=C1\NC(=O)c2csc(n2)CNC(=O)C[C@@H](/C=C/CCS)OC(=O)[C@H](C(C)C)NC1=O [Compound 6-1]	50	360	650	600	5	230	34	100	59	42	no activity	< 100
